Measured values: PubChem BioAssay AID330 (DTP/NCI, 2004)
Values joined by “and” are separate entries in the source; they are usually repeats but may differ in a detail not shown here. Identical values can stand only once. Inconclusive results and toxic doses are left out. How the source made its calls: active means survival T/C of 150% or more; inactive means T/C below 125% in these data.

Test system: P388 leukemia ip, CD2F1 mice, survival T/C
Experiment: NCI In Vivo Anticancer Drug Screen. Data for tumor model P388 Leukemia (intraperitoneal) in CD2F1 (CDF1) mice
Settings: endpoint: median survival time, higher = longer survival
Procedure, shortened: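 Mice carrying the transplanted tumor received test compound or vehicle. Survival was recorded in each group, and the value is the treated-group measurement divided by that of the vehicle-treated control group.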

[1] = dose: 6.25 mg/kg/injection, schedule: Q01DX009 (ip), vehicle: saline with Tween-80
[2] = dose: 12.5 mg/kg/injection, schedule: Q01DX009 (ip), vehicle: saline with Tween-80
[3] = dose: 12.5 mg/kg/injection, schedule: Q04DX003 (ip), vehicle: saline with Tween-80
[4] = dose: 25.0 mg/kg/injection, schedule: Q01DX009 (ip), vehicle: saline with Tween-80
[5] = dose: 25.0 mg/kg/injection, schedule: Q04DX003 (ip), vehicle: saline with Tween-80
[6] = dose: 50.0 mg/kg/injection, schedule: Q01DX009 (ip), vehicle: saline with Tween-80
[7] = dose: 50.0 mg/kg/injection, schedule: Q04DX003 (ip), vehicle: saline with Tween-80
[8] = dose: 100.0 mg/kg/injection, schedule: Q04DX003 (ip), vehicle: saline with Tween-80
[9] = dose: 50.0 mg/kg/injection, schedule: Q01DX005 (ip), vehicle: Klucel (hydroxypropylcellulose) (HPC)
[10] = dose: 100.0 mg/kg/injection, schedule: Q01DX005 (ip), vehicle: Klucel (hydroxypropylcellulose) (HPC)
[11] = dose: 200.0 mg/kg/injection, schedule: Q01DX005 (ip), vehicle: Klucel (hydroxypropylcellulose) (HPC)
[12] = dose: 50.0 mg/kg/injection, schedule: Q01DX005 (ip), vehicle: saline with Tween-80
[13] = dose: 100.0 mg/kg/injection, schedule: Q01DX005 (ip), vehicle: saline with Tween-80
[14] = dose: 200.0 mg/kg/injection, schedule: Q01DX005 (ip), vehicle: saline with Tween-80
[15] = dose: 100.0 mg/kg/injection, schedule: Q01DX009 (ip), vehicle: saline with Tween-80
[16] = dose: 200.0 mg/kg/injection, schedule: Q01DX009 (ip), vehicle: saline with Tween-80
[17] = dose: 400.0 mg/kg/injection, schedule: Q01DX009 (ip), vehicle: saline with Tween-80

Measured: T/C

COc1ccccc1N1CCN(CCc2c[nH]c3cc4c(cc23)OCO4)CC1
inactive: [1] 92 % of control | [2] 100 % of control | [3] 114 % of control | dose: 18.75 mg/kg/injection, schedule: Q01DX009 (ip), vehicle: Klucel (hydroxypropylcellulose) (HPC) 108 % of control | [4] 101 % of control | [5] 120 % of control | dose: 37.5 mg/kg/injection, schedule: Q01DX009 (ip), vehicle: Klucel (hydroxypropylcellulose) (HPC) 101 % of control | [6] 104 % of control | [7] 123 % of control | dose: 75.0 mg/kg/injection, schedule: Q01DX009 (ip), vehicle: Klucel (hydroxypropylcellulose) (HPC) 88 % of control | [8] 121 % of control

Cc1ccc(-c2csc(=NCCc3ccccc3)n2-c2ccc(C)cc2)cc1
inactive: dose: 12.5 mg/kg/injection, schedule: Q04DX002 (ip), vehicle: saline with Tween-80 97 % of control | dose: 25.0 mg/kg/injection, schedule: Q04DX002 (ip), vehicle: saline with Tween-80 99 % of control | dose: 50.0 mg/kg/injection, schedule: Q04DX002 (ip), vehicle: saline with Tween-80 88 % of control | dose: 100.0 mg/kg/injection, schedule: Q04DX002 (ip), vehicle: saline with Tween-80 88 % of control | dose: 400.0 mg/kg/injection, schedule: Q04DX002 (ip), vehicle: saline with Tween-80 93 % of control

CC(C)C(NSC(=O)C1CCCN1Sc1ccc([N+](=O)[O-])cc1[N+](=O)[O-])C(=O)OCc1ccccc1 (stereo not drawn)
inactive: dose: 25.0 mg/kg/injection, schedule: Q01DX005 (ip), vehicle: Klucel (hydroxypropylcellulose) (HPC) 92 % of control | [9] 94 % of control | [10] 86 % of control and 93 % of control | [11] 93 % of control

C1CC2CCC1CNC2
inactive: dose: 25.0 mg/kg/injection, schedule: Q04DX003 (ip), vehicle: saline 104 % of control | dose: 50.0 mg/kg/injection, schedule: Q04DX003 (ip), vehicle: saline 104 % of control | dose: 100.0 mg/kg/injection, schedule: Q04DX003 (ip), vehicle: saline 95 % of control

O=C1C2CC=CCC2C(=O)N1CC[P+](c1ccccc1)(c1ccccc1)c1ccccc1 (stereo not drawn)
inactive: dose: 0.78 mg/kg/injection, schedule: Q01DX009 (ip), vehicle: water 100 % of control | dose: 1.56 mg/kg/injection, schedule: Q01DX009 (ip), vehicle: water 102 % of control and 95 % of control | dose: 3.13 mg/kg/injection, schedule: Q01DX009 (ip), vehicle: water 102 % of control and 106 % of control | dose: 6.25 mg/kg/injection, schedule: Q01DX009 (ip), vehicle: water 112 % of control | dose: 12.5 mg/kg/injection, schedule: Q01DX009 (ip), vehicle: water 115 % of control and 116 % of control | dose: 25.0 mg/kg/injection, schedule: Q01DX009 (ip), vehicle: water 115 % of control

O=C(Nc1cccc(Br)c1)Oc1ccc(Cl)c2cccnc12
inactive: dose: 7.5 mg/kg/injection, schedule: Q01DX005 (ip), vehicle: saline with Tween-80 107 % of control | dose: 15.0 mg/kg/injection, schedule: Q01DX005 (ip), vehicle: saline with Tween-80 103 % of control | dose: 30.0 mg/kg/injection, schedule: Q01DX005 (ip), vehicle: saline with Tween-80 103 % of control and 91 % of control | dose: 60.0 mg/kg/injection, schedule: Q01DX005 (ip), vehicle: saline with Tween-80 100 % of control and 111 % of control | dose: 240.0 mg/kg/injection, schedule: Q01DX005 (ip), vehicle: saline with Tween-80 88 % of control

CS(C)(=O)=Nc1ccc(F)cc1
inactive: dose: 100.0 mg/kg/injection, schedule: Q01DX001 (ip), vehicle: saline with Tween-80 99 % of control | dose: 200.0 mg/kg/injection, schedule: Q01DX001 (ip), vehicle: saline with Tween-80 99 % of control | dose: 400.0 mg/kg/injection, schedule: Q01DX001 (ip), vehicle: saline with Tween-80 99 % of control

O=S(=O)(/C=C\c1ccccc1)/C=C/c1ccc(F)cc1
inactive: [12] 111 % of control | [13] 97 % of control | [14] 94 % of control

Cc1cc(-c2ccc(Oc3ccc(Br)cc3)cc2)n[nH]c1=O
inactive: [9] 99 % of control | [10] 104 % of control | [11] 96 % of control

NC(N)=NC(=O)c1ccccc1
inactive: dose: 50.0 mg/kg/injection, schedule: Q01DX005 (ip), vehicle: saline 100 % of control | dose: 100.0 mg/kg/injection, schedule: Q01DX005 (ip), vehicle: saline 100 % of control | dose: 200.0 mg/kg/injection, schedule: Q01DX005 (ip), vehicle: saline 100 % of control

N#C/C(=C\c1cccs1)c1nc(-c2ccc(Cl)cc2)cs1
inactive: dose: 50.0 mg/kg/injection, schedule: Q01DX009 (ip), vehicle: saline 91 % of control | dose: 100.0 mg/kg/injection, schedule: Q01DX009 (ip), vehicle: saline 91 % of control

NC(=S)N/N=C/c1ccc(OC(F)(F)F)cn1
inactive: dose: 1.56 mg/kg/injection, schedule: Q01DX009 (ip), vehicle: saline with Tween-80 101 % of control | dose: 3.13 mg/kg/injection, schedule: Q01DX009 (ip), vehicle: saline with Tween-80 101 % of control and 107 % of control | [1] 100 % of control and 95 % of control | [2] 99 % of control and 101 % of control | [4] 101 % of control | [6] 114 % of control

O=C1Cc2ccccc2CC1CC1Cc2ccccc2CC1=O (stereo not drawn)
inactive: dose: 50.0 mg/kg/injection, schedule: Q01DX009 (ip), vehicle: Klucel (hydroxypropylcellulose) (HPC) 87 % of control | dose: 200.0 mg/kg/injection, schedule: Q01DX009 (ip), vehicle: Klucel (hydroxypropylcellulose) (HPC) 91 % of control

Cc1ncn2ncnc2c1C
inactive: [5] 103 % of control | [7] 104 % of control | [8] 101 % of control and 93 % of control

O=[C-]c1ccccc1[C-]=O.[I][Ni+2][I]
inactive: dose: 6.25 mg/kg/injection, schedule: Q01DX005 (ip), vehicle: saline 94 % of control | dose: 12.5 mg/kg/injection, schedule: Q01DX005 (ip), vehicle: saline 94 % of control | dose: 25.0 mg/kg/injection, schedule: Q01DX005 (ip), vehicle: saline 110 % of control

CC(=O)OCN(C)N=Nc1ccc(Br)cc1
inactive: dose: 36.0 mg/kg/injection, schedule: Q01DX005 (ip), vehicle: Klucel (hydroxypropylcellulose) (HPC) 94 % of control | dose: 72.0 mg/kg/injection, schedule: Q01DX005 (ip), vehicle: Klucel (hydroxypropylcellulose) (HPC) 92 % of control

COCCOCCOCCOCCO
inactive: [12] 102 % of control | [13] 100 % of control | [14] 104 % of control

Cc1cc(C)c(C#N)c(=O)[nH]1
inactive: [3] 97 % of control | [5] 103 % of control | [7] 105 % of control | [8] 103 % of control

CCCc1cc(=O)[nH]c(Sc2ccc([N+](=O)[O-])cn2)n1
inactive: dose: 3.12 mg/kg/injection, schedule: Q01DX005 (ip), vehicle: Klucel (hydroxypropylcellulose) (HPC) 101 % of control | dose: 6.25 mg/kg/injection, schedule: Q01DX005 (ip), vehicle: Klucel (hydroxypropylcellulose) (HPC) 101 % of control | dose: 12.5 mg/kg/injection, schedule: Q01DX005 (ip), vehicle: Klucel (hydroxypropylcellulose) (HPC) 106 % of control

CNC(=O)CCCCC(=O)NC
inactive: [6] 96 % of control | [15] 104 % of control | [16] 114 % of control | [17] 96 % of control

C1CCC2(CC1)NN=C1CCCCC12 (stereo not drawn)
inactive: dose: 12.5 mg/kg/injection, schedule: Q01DX009 (ip), vehicle: other 101 % of control | dose: 25.0 mg/kg/injection, schedule: Q01DX009 (ip), vehicle: other 110 % of control | dose: 50.0 mg/kg/injection, schedule: Q01DX009 (ip), vehicle: other 104 % of control | dose: 100.0 mg/kg/injection, schedule: Q01DX009 (ip), vehicle: other 106 % of control | dose: 200.0 mg/kg/injection, schedule: Q01DX009 (ip), vehicle: other 116 % of control

CCOC(=O)CCC1(C(=O)OC)C(=O)CCCCCCC1C(=O)OC (stereo not drawn)
inactive: [15] 95 % of control | [16] 100 % of control | [17] 100 % of control

N=c1c2[nH]cnc2ncn1O
inactive: dose: 60.0 mg/kg/injection, schedule: Q01DX005 (ip), vehicle: Klucel (hydroxypropylcellulose) (HPC) 92 % of control | dose: 120.0 mg/kg/injection, schedule: Q01DX005 (ip), vehicle: Klucel (hydroxypropylcellulose) (HPC) 93 % of control
